{
  "source": "PubChem BioAssay (NCI)",
  "assay_in_all_cases": "NCI anticancer screen, dose series, 48 h",
  "key": {"U251 CNS": {"tested_on": "U251 CNS"}, "HOP-62 NSCLC": {"tested_on": "HOP-62 NSCLC"}, "MDA-MB-435": {"tested_on": "MDA-MB-435"}, "SK-OV-3 ovarian": {"tested_on": "SK-OV-3 ovarian"}, "SNB-75 CNS": {"tested_on": "SNB-75 CNS"}, "BT-549 breast": {"tested_on": "BT-549 breast"}, "OVCAR-4 ovarian": {"tested_on": "OVCAR-4 ovarian"}, "NCI/ADR-RES ovarian": {"tested_on": "NCI/ADR-RES ovarian"}, "NCI-H226 lung": {"tested_on": "NCI-H226 lung"}, "786-0 renal": {"tested_on": "786-0 renal"}, "NCI-H522 lung": {"tested_on": "NCI-H522 lung"}, "OVCAR-5 ovarian": {"tested_on": "OVCAR-5 ovarian"}, "IGROV1 ovarian": {"tested_on": "IGROV1 ovarian"}, "M14 melanoma": {"tested_on": "M14 melanoma"}, "K-562 leukemia": {"tested_on": "K-562 leukemia"}, "UACC-257 melanoma": {"tested_on": "UACC-257 melanoma"}, "HCT-116 colon": {"tested_on": "HCT-116 colon"}, "SW-620 colon": {"tested_on": "SW-620 colon"}, "MDA-MB-231 breast": {"tested_on": "MDA-MB-231 breast"}, "OVCAR-3 ovarian": {"tested_on": "OVCAR-3 ovarian"}, "A549 NSCLC": {"tested_on": "A549 NSCLC"}, "UACC-62 melanoma": {"tested_on": "UACC-62 melanoma"}, "PC-3 prostate": {"tested_on": "PC-3 prostate"}, "ACHN renal": {"tested_on": "ACHN renal"}, "RXF 393 renal": {"tested_on": "RXF 393 renal"}, "KM12 colon": {"tested_on": "KM12 colon"}, "COLO 205 colon": {"tested_on": "COLO 205 colon"}, "HOP-92 NSCLC": {"tested_on": "HOP-92 NSCLC"}, "HCT-15 colon": {"tested_on": "HCT-15 colon"}},
  "note": "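Protocol summary: plate cells (96-well), add compound at 5 concentrations, incubate 48 h, interpolate endpoints linearly. GI50: concentration for 50% inhibition of growth. The concentration for full growth arrest is given as TGI.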",
  "data": [
    {"smiles": "O=S(=O)(CCCl)c1ccc(Cl)cc1", "values": [
      {"measurement": "GI50", "setting": "U251 CNS", "result": 10.1, "unit": "µM"},
      {"measurement": "TGI", "setting": "U251 CNS", "result": 27.5, "unit": "µM"},
      {"measurement": "GI50", "setting": "HOP-62 NSCLC", "result": 15.7, "unit": "µM"},
      {"measurement": "TGI", "setting": "HOP-62 NSCLC", "result": 30.6, "unit": "µM"},
      {"measurement": "GI50", "setting": "MDA-MB-435", "result": 2.7, "unit": "µM"},
      {"measurement": "TGI", "setting": "MDA-MB-435", "result": 12.6, "unit": "µM"},
      {"measurement": "GI50", "setting": "SK-OV-3 ovarian", "result": 11.7, "unit": "µM"},
      {"measurement": "TGI", "setting": "SK-OV-3 ovarian", "result": 98.1, "unit": "µM"},
      {"measurement": "GI50", "setting": "SNB-75 CNS", "result": 2.4, "unit": "µM"},
      {"measurement": "TGI", "setting": "SNB-75 CNS", "result": 29.8, "unit": "µM"},
      {"measurement": "GI50", "setting": "BT-549 breast", "result": 3.36, "unit": "µM"},
      {"measurement": "TGI", "setting": "BT-549 breast", "result": 12.6, "unit": "µM"},
      {"measurement": "GI50", "setting": "OVCAR-4 ovarian", "result": 2.22, "unit": "µM"},
      {"measurement": "TGI", "setting": "OVCAR-4 ovarian", "result": 10.8, "unit": "µM"},
      {"measurement": "GI50", "setting": "NCI/ADR-RES ovarian", "result": 3.86, "unit": "µM"},
      {"measurement": "TGI", "setting": "NCI/ADR-RES ovarian", "result": 40.6, "unit": "µM"},
      {"measurement": "GI50", "setting": "NCI-H226 lung", "result": 16, "unit": "µM"},
      {"measurement": "TGI", "setting": "NCI-H226 lung", "result": "> 100", "unit": "µM"},
      {"measurement": "GI50", "setting": "786-0 renal", "result": 6.41, "unit": "µM"},
      {"measurement": "TGI", "setting": "786-0 renal", "result": 21.4, "unit": "µM"},
      {"measurement": "GI50", "setting": "NCI-H522 lung", "result": 1.41, "unit": "µM"},
      {"measurement": "TGI", "setting": "NCI-H522 lung", "result": 3.01, "unit": "µM"},
      {"measurement": "GI50", "setting": "OVCAR-5 ovarian", "result": 3.56, "unit": "µM"},
      {"measurement": "TGI", "setting": "OVCAR-5 ovarian", "result": 14.2, "unit": "µM"},
      {"measurement": "GI50", "setting": "IGROV1 ovarian", "result": 2.41, "unit": "µM"},
      {"measurement": "TGI", "setting": "IGROV1 ovarian", "result": 7.44, "unit": "µM"},
      {"measurement": "GI50", "setting": "M14 melanoma", "result": 5.18, "unit": "µM"},
      {"measurement": "TGI", "setting": "M14 melanoma", "result": 22.2, "unit": "µM"},
      {"measurement": "GI50", "setting": "K-562 leukemia", "result": 3.98, "unit": "µM"},
      {"measurement": "TGI", "setting": "K-562 leukemia", "result": "> 100", "unit": "µM"},
      {"measurement": "GI50", "setting": "UACC-257 melanoma", "result": 2.98, "unit": "µM"},
      {"measurement": "TGI", "setting": "UACC-257 melanoma", "result": 11.6, "unit": "µM"},
      {"measurement": "GI50", "setting": "HCT-116 colon", "result": 2.74, "unit": "µM"},
      {"measurement": "TGI", "setting": "HCT-116 colon", "result": 11.9, "unit": "µM"},
      {"measurement": "GI50", "setting": "SW-620 colon", "result": 2.43, "unit": "µM"},
      {"measurement": "TGI", "setting": "SW-620 colon", "result": 11.6, "unit": "µM"},
      {"measurement": "GI50", "setting": "MDA-MB-231 breast", "result": 2.55, "unit": "µM"},
      {"measurement": "TGI", "setting": "MDA-MB-231 breast", "result": 9.03, "unit": "µM"},
      {"measurement": "GI50", "setting": "OVCAR-3 ovarian", "result": 2.84, "unit": "µM"},
      {"measurement": "TGI", "setting": "OVCAR-3 ovarian", "result": 10.6, "unit": "µM"},
      {"measurement": "GI50", "setting": "A549 NSCLC", "result": 13, "unit": "µM"},
      {"measurement": "TGI", "setting": "A549 NSCLC", "result": 45.6, "unit": "µM"},
      {"measurement": "GI50", "setting": "UACC-62 melanoma", "result": 5.63, "unit": "µM"},
      {"measurement": "TGI", "setting": "UACC-62 melanoma", "result": 19.4, "unit": "µM"},
      {"measurement": "GI50", "setting": "PC-3 prostate", "result": 5.82, "unit": "µM"},
      {"measurement": "TGI", "setting": "PC-3 prostate", "result": 22.9, "unit": "µM"},
      {"measurement": "GI50", "setting": "ACHN renal", "result": 3.52, "unit": "µM"},
      {"measurement": "TGI", "setting": "ACHN renal", "result": 13.1, "unit": "µM"},
      {"measurement": "GI50", "setting": "RXF 393 renal", "result": 2.32, "unit": "µM"},
      {"measurement": "TGI", "setting": "RXF 393 renal", "result": 8.96, "unit": "µM"},
      {"measurement": "GI50", "setting": "KM12 colon", "result": 12.9, "unit": "µM"},
      {"measurement": "TGI", "setting": "KM12 colon", "result": 31.4, "unit": "µM"},
      {"measurement": "GI50", "setting": "COLO 205 colon", "result": 3.74, "unit": "µM"},
      {"measurement": "TGI", "setting": "COLO 205 colon", "result": 11.7, "unit": "µM"},
      {"measurement": "GI50", "setting": "HOP-92 NSCLC", "result": 2.2, "unit": "µM"},
      {"measurement": "TGI", "setting": "HOP-92 NSCLC", "result": 6.57, "unit": "µM"},
      {"measurement": "GI50", "setting": "HCT-15 colon", "result": 2.92, "unit": "µM"}
    ]}
  ]
}
